This note sets out measurements from ChEMBL document CHEMBL1124529, “Sodium channel binding and anticonvulsant activities for the enantiomers of a bicyclic 2,4-oxazolidinedione and monocyclic models” (J Med Chem, 1989).

A value given as a limit tells only on which side of the number the result lay.

T1 sequence (P04775 whole entry, looked up, other chains not shown): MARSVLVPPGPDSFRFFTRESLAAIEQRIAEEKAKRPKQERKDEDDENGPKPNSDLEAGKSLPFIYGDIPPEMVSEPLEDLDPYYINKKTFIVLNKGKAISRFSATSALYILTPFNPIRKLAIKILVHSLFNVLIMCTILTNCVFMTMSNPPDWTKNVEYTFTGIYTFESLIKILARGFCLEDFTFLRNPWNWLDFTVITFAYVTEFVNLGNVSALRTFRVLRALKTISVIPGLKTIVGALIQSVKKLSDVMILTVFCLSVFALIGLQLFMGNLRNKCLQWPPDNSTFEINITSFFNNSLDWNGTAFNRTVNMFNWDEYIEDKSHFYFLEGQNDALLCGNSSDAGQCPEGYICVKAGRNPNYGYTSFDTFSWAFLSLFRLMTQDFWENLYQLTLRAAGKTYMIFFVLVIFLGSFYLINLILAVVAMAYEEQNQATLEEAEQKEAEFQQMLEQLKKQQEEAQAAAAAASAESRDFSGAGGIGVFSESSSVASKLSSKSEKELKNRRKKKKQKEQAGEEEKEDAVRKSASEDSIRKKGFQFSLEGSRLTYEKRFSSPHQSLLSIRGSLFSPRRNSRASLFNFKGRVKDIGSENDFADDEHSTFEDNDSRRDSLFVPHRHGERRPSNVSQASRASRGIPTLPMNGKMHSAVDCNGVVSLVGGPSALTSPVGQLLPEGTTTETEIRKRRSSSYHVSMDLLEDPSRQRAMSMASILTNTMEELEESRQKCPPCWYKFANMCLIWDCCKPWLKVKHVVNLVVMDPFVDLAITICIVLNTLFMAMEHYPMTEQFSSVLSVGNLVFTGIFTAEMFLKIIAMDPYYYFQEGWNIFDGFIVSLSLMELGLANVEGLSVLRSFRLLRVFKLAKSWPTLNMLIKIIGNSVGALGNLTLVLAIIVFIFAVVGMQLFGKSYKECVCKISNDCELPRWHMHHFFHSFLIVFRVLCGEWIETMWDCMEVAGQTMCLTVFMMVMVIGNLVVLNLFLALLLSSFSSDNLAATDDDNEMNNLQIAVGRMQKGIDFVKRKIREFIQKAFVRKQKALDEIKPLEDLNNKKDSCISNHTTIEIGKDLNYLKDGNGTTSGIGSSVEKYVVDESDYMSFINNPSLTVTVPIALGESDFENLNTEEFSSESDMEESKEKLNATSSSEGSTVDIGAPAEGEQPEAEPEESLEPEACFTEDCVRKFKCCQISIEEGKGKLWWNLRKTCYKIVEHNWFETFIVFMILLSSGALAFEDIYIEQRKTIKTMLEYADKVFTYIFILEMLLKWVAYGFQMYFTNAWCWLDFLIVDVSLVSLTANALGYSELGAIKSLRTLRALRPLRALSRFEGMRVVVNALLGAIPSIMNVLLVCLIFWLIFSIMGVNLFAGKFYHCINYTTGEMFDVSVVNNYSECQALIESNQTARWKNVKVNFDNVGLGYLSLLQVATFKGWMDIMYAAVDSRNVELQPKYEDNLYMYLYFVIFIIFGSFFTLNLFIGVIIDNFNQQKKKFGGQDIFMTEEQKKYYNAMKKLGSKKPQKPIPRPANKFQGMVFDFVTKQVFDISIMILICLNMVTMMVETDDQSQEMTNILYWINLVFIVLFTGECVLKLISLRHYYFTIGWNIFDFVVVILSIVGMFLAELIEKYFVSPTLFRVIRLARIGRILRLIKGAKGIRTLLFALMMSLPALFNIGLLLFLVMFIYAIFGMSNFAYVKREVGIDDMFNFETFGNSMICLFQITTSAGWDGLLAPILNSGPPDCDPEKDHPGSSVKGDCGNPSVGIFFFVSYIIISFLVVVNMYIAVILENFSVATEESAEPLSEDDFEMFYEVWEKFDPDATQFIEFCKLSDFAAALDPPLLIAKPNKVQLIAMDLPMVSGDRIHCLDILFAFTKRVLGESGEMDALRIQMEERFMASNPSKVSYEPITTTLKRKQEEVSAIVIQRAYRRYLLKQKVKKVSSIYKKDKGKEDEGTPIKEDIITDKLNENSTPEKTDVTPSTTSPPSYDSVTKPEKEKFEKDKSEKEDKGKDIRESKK
T1 sequence (P08104 whole entry, looked up, other chains not shown): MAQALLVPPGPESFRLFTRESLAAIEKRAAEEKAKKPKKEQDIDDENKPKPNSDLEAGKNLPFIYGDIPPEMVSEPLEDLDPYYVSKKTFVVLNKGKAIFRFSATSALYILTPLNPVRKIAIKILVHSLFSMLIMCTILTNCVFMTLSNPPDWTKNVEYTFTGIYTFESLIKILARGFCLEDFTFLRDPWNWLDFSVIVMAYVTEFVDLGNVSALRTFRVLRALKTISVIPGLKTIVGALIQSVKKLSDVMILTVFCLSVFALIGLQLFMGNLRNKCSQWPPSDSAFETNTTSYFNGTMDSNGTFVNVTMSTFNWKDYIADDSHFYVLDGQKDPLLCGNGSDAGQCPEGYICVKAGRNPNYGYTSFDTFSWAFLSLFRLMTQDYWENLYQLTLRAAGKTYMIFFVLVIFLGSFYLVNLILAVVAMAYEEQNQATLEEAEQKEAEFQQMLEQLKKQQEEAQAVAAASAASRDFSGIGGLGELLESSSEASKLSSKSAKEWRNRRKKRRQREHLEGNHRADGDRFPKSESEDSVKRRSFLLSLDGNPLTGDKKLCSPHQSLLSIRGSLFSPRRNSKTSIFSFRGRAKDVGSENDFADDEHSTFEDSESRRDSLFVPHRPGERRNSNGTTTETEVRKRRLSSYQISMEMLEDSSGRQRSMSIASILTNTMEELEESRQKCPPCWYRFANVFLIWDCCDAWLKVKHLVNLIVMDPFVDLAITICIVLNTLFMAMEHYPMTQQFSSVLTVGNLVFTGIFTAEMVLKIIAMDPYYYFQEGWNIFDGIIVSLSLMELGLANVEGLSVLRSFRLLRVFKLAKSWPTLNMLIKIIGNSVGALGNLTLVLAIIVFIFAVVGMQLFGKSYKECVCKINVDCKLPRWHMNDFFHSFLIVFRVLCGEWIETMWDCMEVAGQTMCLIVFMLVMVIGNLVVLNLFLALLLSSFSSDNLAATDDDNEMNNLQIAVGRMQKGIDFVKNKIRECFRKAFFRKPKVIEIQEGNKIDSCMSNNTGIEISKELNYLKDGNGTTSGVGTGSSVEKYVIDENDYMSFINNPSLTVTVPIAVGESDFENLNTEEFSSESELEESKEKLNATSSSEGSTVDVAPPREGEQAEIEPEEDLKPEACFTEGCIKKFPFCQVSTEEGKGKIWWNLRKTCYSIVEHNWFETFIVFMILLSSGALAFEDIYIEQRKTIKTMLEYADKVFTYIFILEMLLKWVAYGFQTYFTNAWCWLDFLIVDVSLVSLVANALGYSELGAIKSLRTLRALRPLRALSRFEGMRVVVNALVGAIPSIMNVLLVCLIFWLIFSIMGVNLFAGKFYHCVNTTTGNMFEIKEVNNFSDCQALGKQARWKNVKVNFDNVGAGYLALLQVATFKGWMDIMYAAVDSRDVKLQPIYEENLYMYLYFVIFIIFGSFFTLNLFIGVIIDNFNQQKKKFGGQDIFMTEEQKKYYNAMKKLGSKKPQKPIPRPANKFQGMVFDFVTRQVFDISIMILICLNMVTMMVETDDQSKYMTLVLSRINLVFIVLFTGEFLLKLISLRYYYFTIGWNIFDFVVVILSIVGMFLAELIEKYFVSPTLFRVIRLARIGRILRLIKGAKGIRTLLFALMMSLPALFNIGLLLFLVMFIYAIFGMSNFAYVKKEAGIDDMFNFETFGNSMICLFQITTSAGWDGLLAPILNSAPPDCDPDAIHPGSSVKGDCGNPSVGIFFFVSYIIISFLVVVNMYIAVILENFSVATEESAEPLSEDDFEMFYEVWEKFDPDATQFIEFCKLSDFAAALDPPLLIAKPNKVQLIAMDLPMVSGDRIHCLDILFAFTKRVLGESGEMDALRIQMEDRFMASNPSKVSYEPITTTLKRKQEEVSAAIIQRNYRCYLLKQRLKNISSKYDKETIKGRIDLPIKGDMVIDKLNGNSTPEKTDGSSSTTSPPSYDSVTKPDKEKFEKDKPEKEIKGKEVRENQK

For one data set, the system named is Mus musculus. Nature of the data set: Anticonvulsant activity of the compound, 0.5 hr after administration in maximal electroshock mice model. The data set is classed as functional.
Conditions: not given
On to `CC[C@]1(c2ccccc2)OC(=O)NC1=O`, for which the 50% effect level (ED50) was put at a dose of 91 mg/kg.
As for `O=C1OC2(c3ccccc3)CCCCCN1C2=O` (racemic), the 50% effective dose (ED50) amounted to 66 mg/kg.
The same measure, in the same setting: next, `CC[C@@]1(c2ccccc2)OC(=O)NC1=O`: 141 mg/kg.
Same read-out and setting: next, `CCC1(c2ccccc2)OC(=O)N(C)C1=O` (racemic): 124 mg/kg; `O=C1O[C@@]2(c3ccccc3)CCCCCN1C2=O`: 45 mg/kg; `CC[C@@]1(c2ccccc2)OC(=O)N(C)C1=O`: 188 mg/kg.
The same measure, in the same setting: next, `CC[C@]1(c2ccccc2)OC(=O)N(C)C1=O`: 122 mg/kg.
Molecule `O=C1O[C@]2(c3ccccc3)CCCCCN1C2=O` displayed an ED50 of 82 mg/kg.

Test system in a further data set: not listed separately
The experiment in a line: Anticonvulsant activity of the compound,0.5 hr after administration in mice subjected to rotarod toxicity test. Format: organism-based. The note with it: mouse, in vivo.
`CC[C@]1(c2ccccc2)OC(=O)NC1=O`: the TD50 at 0.5 h worked out at 172 mg/kg.
In turn, `O=C1OC2(c3ccccc3)CCCCCN1C2=O` (racemic) gave a TD50 at 0.5 h of 147 mg/kg.
Take `CC[C@@]1(c2ccccc2)OC(=O)NC1=O`: the TD50 at 0.5 h turned out to be 155 mg/kg.
`O=C1O[C@@]2(c3ccccc3)CCCCCN1C2=O`: the TD50 at 0.5 h came to 84 mg/kg.
The same measure, in the same setting: then `CC[C@@]1(c2ccccc2)OC(=O)N(C)C1=O`, with 395 mg/kg; and `CC[C@]1(c2ccccc2)OC(=O)N(C)C1=O`, with 354 mg/kg.

The test system of a further data set is Mus musculus. Nature of the data set: Anticonvulsant activity of the compound, 0.5 hr after administration of compound in mice subjected to subcutaneous metrazole challenge (85 mg/kg). Format: functional. The settings on record: sc.
Molecule `CC[C@]1(c2ccccc2)OC(=O)NC1=O` yielded an ED50 of 108 mg/kg.
`O=C1OC2(c3ccccc3)CCCCCN1C2=O` (racemic) showed an ED50 of 45 mg/kg.
`CC[C@@]1(c2ccccc2)OC(=O)NC1=O` gave a median effective dose (ED50) of 42 mg/kg.
Same read-out and setting: next, `O=C1O[C@@]2(c3ccccc3)CCCCCN1C2=O`: 50 mg/kg; `CC[C@@]1(c2ccccc2)OC(=O)N(C)C1=O`: 64 mg/kg; `CC[C@]1(c2ccccc2)OC(=O)N(C)C1=O`: 69 mg/kg.
The same measure, in the same setting: next, `O=C1O[C@]2(c3ccccc3)CCCCCN1C2=O`: under 400 mg/kg.

The next data set has as its target T1, Sodium channel alpha subunits; brain (Types I, II, III) (Rattus norvegicus) (UniProt P04775+P04774+P08104). The experiment in a line: Displacement of [3H]BTX-B from rat cerebral cortex voltage-gated sodium channel, 0.5 hr after 500 uM.
Conditions: not given
Format: tissue-based.
The molecule `CC[C@]1(c2ccccc2)OC(=O)NC1=O` returned an inhibition of 46%.
On the same count and under the same terms, next, `CC[C@@]1(c2ccccc2)OC(=O)NC1=O`: 36%; `CCC1(c2ccccc2)OC(=O)N(C)C1=O` (racemic): 50%; `CC[C@@]1(c2ccccc2)OC(=O)N(C)C1=O`: 45%.
As for `CCC1(c2ccccc2)OC(=O)NC1=O` (racemic), the inhibition came to 44%.
The molecule `CC[C@]1(c2ccccc2)OC(=O)N(C)C1=O` yielded an inhibition of 49%.

A further data set has as its target T1, Sodium channel alpha subunits; brain (Types I, II, III) (Rattus norvegicus). Nature of the data set: Displacement of [3H]BTX-B from rat cerebral cortex voltage-gated sodium channel, 0.5 hr after 190 uM. The data set is classed as tissue-based.
Conditions: not given
In the case of `O=C1O[C@@]2(c3ccccc3)CCCCCN1C2=O`, the inhibition was 50%.
Still for that read-out and setting: then `O=C1O[C@]2(c3ccccc3)CCCCCN1C2=O`, with 50%.

The target is the same in another data set. The experiment in a line: Displacement of [3H]BTX-B from rat cerebral cortex voltage-gated sodium channel, 0.25 hr after 160 uM. Format: tissue-based.
Conditions: not given
Molecule `O=C1OC2(c3ccccc3)CCCCCN1C2=O` (racemic) had an inhibition of 50%.

Test system in another data set: not listed separately
Nature of the data set: Anticonvulsant activity of the compound,0.25 h after administration in mice subjected to rotarod toxicity test. Format: organism-based. The settings on record: mouse, in vivo.
`O=C1O[C@]2(c3ccccc3)CCCCCN1C2=O` yielded a TD50 at 0.25 h of 334 mg/kg.

Another data set is filed under the species Mus musculus. The experiment in a line: Anticonvulsant activity when mice were subjected to maximal electroshock. Format: functional.
Conditions: not given
In turn, `CC(=O)N[C@H](C(=O)NCc1ccccc1)c1ccccc1` showed a median effective dose (ED50) of over 300 mg/kg.
In turn, `CC(=O)N[C@@H](C(=O)NCc1ccccc1)c1ccccc1` registered a median effective dose (ED50) of 26 mg/kg.
